EC50 data for 25 compounds are collected here from patent US12617756B2 (ABIVAX, priority 2019, dated 2026).

For the experiment, the system named is RSV A2. Briefly: Screening for RSV inhibition using Viral ToxGlo assay (cytopathic effect inhibition in HEp-2 cells). The settings on record: human respiratory syncytial virus; RSV A2 in HEp-2 cells, MOI 0.5, 72h p.i., cytopathic effect inhibition relative to virus control, Viral ToxGlo luminescence. In kind it is cell-based, Respiratory Syncytial Virus (RSV). The procedure, abridged: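 HEp-2 cells in 2% FBS medium infected with RSV A2 right after compound addition (max 1% DMSO), uninfected wells used for cytotoxicity. After 72 h p.i. at 37 °C/5% CO2, cell viability read by Viral ToxGlo luminescence as measure of cytopathic effect.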
For orientation: Damage to the host cells serves as the signal in cytopathic effect assays.
Consider `CC(C)N(C)C(=O)c1cccc(Nc2ccc(C(=O)N=C3NCCN3)cc2C(C)(C)C)c1` [Compound 38, 3-tert-butyl-N-[(2E)-imidazolidin-2-ylidene]-4-({3-[methyl(propan-2-yl)carbamoyl]phenyl}amino)benzamide], for which the EC50 (as a rule, the concentration needed to bring the measured effect to its halfway point) is 63.7 nM.
Regarding `O=C(N=C1NCCN1)c1ccc(Nc2cc(F)cc(C(=O)N3CCOCC3)c2Cl)c(C2CC2)c1` [Compound 118, 4-{[2-chloro-5-fluoro-3-(morpholine-4-carbonyl)phenyl]amino}-3-cyclopropyl-N-[imidazolidin-2-ylidene]benzamide], the half-maximal effective concentration (EC50) was 27 nM.
With `CC(C)CCC(=O)Nc1ccccc1Oc1ccc(C(=O)N=C2NCCN2)cc1C1CC1` [Compound 100, 3-cyclopropyl-N-[(2E)-imidazolidin-2-ylidene]-4-[2-(4-methylpentanamido)phenoxy]benzamide], the EC50 came to 458 nM.
Under `CC1(NC(=O)c2cccc(Nc3ccc(C(=O)N=C4NCCN4)cc3C3CCCO3)c2)CC1` (stereo not shown) [Compound 140, N-[imidazolidin-2-ylidene]-4-({3-[(1-methylcyclopropyl)carbamoyl]phenyl}amino)-3-(oxolan-2-yl)benzamide] stands 227 nM.
Turning to `CC(=O)N1CCN/C1=N\C(=O)c1ccc(Nc2cccc(NC(=O)C(C)C)c2)c(C2CC2)c1` [Compound 110, N-[(2E)-1-acetylimidazolidin-2-ylidene]-3-cyclopropyl-4-{[3-(2-methylpropanamido)phenyl]amino}benzamide], the EC50 was determined as 324 nM.
As to `CC(C)NC(=O)c1cccc(Nc2ccc(C(=O)N=C3NCCN3)cc2C2CCOCC2)c1` [Compound 69, N-[(2Z)-imidazolidin-2-ylidene]-3-(oxan-4-yl)-4-({3-[(propan-2-yl)carbamoyl]phenyl}amino)benzamide], the EC50 was found to be 1130 nM.
Under `CC1(NC(=O)c2cc(F)cc(Nc3ccc(C(=O)N=C4NCCN4)cc3C3CC3)c2F)CC1` [Compound 139, 3-[(2-cyclopropyl-4-{[imidazolidin-2-ylidene]carbamoyl}phenyl)amino]-2,5-difluoro-N-(1-methylcyclopropyl)benzamide] stands 152 nM.
For the compound `CC1(NC(=O)c2cccc(Nc3c(F)cc(C(=O)N=C4NCCN4)cc3C3CCCO3)c2Cl)CC1` (stereo not shown) [Compound 135, 4-({2-chloro-3-[(1-methylcyclopropyl)carbamoyl]phenyl}amino)-3-fluoro-N-[imidazolidin-2-ylidene]-5-(oxolan-2-yl)benzamide], the EC50 was 28.7 nM.
Under `CC(C)NC(=S)c1cccc(Nc2ccc(C(=O)N=C3NCCN3)cc2C2CC2)c1` [Compound 34, 3-cyclopropyl-N-[(2Z)-imidazolidin-2-ylidene]-4-({3-[(propan-2-yl)carbamothioyl]phenyl}amino)benzamide] stands 50.4 nM; under `CC1(NC(=O)c2nccc(Nc3c(F)cc(C(=O)N=C4NCCN4)cc3C3CC3)c2F)CC1` [Compound 99, 4-[(2-cyclopropyl-6-fluoro-4-{[(2Z)-imidazolidin-2-ylidene]carbamoyl}phenyl)amino]-3-fluoro-N-(1-methylcyclopropyl)pyridine-2-carboxamide], 35.3 nM.
For `CC1(NC(=O)c2ccnc(Nc3c(F)cc(C(=O)N=C4NCCN4)cc3C3CC3)c2F)CC1` [Compound 147, 2-[(2-cyclopropyl-6-fluoro-4-{[imidazolidin-2-ylidene]carbamoyl}phenyl)amino]-3-fluoro-N-(1-methylcyclopropyl)pyridine-4-carboxamide], the EC50 was 99.4 nM.
Consider `Cc1c(Nc2ccc(C(=O)N=C3NCCN3)cc2C2CC2)cccc1C(=O)NC1(C#N)CC1` [Compound 64, 4-({3-[(1-cyanocyclopropyl)carbamoyl]-2-methylphenyl}amino)-3-cyclopropyl-N-[(2Z)-imidazolidin-2-ylidene]benzamide], for which the concentration for a half-maximal effect (EC50) was 950 nM.
As to `CC1(NC(=O)c2cccc(Nc3ccc(C(=O)N=C4NCCN4)cc3C(C)(C)C)c2Cl)CC1` [Compound 132, 3-tert-butyl-4-({2-chloro-3-[(1-methylcyclopropyl)carbamoyl]phenyl}amino)-N-[imidazolidin-2-ylidene]benzamide], the concentration giving a half-maximal response (EC50) is 23.6 nM.
For `CC1(NC(=O)c2cccc(Nc3c(F)cc(C(=O)N=C4NCCN4)cc3C3CC3)c2Cl)CC1` [Compound 129, 4-({2-chloro-3-[(1-methylcyclopropyl)carbamoyl]phenyl}amino)-3-cyclopropyl-5-fluoro-N-[imidazolidin-2-ylidene]benzamide] the value was 4.3 nM; for `CC(C)CCNC(=O)c1ccnc(Nc2ccc(C(=O)N=C3NCCN3)cc2C(C)(C)C)c1` [Compound 55, 2-[(2-tert-butyl-4-{[(2E)-imidazolidin-2-ylidene]carbamoyl}phenyl)amino]-N-(3-methylbutyl)pyridine-4-carboxamide], 168 nM.
With `CC(C)NC(=O)c1cc(F)cc(Nc2ccc(C(=O)N=C3NCCN3)cc2C2CC2)c1F` [Compound 138, 3-[(2-cyclopropyl-4-{[imidazolidin-2-ylidene]carbamoyl}phenyl)amino]-2,5-difluoro-N-(propan-2-yl)benzamide], the 50% effective concentration (EC50) stood at 233 nM.
For the compound `O=C(N=C1NCCN1)c1cc(F)c(Nc2cccc(C(=O)N3CCOC(C(F)(F)F)C3)c2)c(C2CC2)c1` (stereo not shown) [Compound 144, 3-cyclopropyl-5-fluoro-N-[imidazolidin-2-ylidene]-4-({3-[2-(trifluoromethyl)morpholine-4-carbonyl]phenyl}amino)benzamide], the concentration giving a half-maximal response (EC50) was 48.1 nM.
Regarding `O=C(N=C1NCCN1)c1cc(F)c(Nc2nccc(C(=O)N3CCOCC3)c2F)c(C2CC2)c1` [Compound 156, 3-cyclopropyl-5-fluoro-4-{[3-fluoro-4-(morpholine-4-carbonyl)pyridin-2-yl]amino}-N-[imidazolidin-2-ylidene]benzamide], the 50% effective concentration (EC50) is 40.7 nM.
With `O=C(N=C1NCCN1)c1cc(F)c(Nc2nccc(C(=O)N3C[C@H]4C[C@@H]3CO4)c2Cl)c(C2CC2)c1` [Compound 154, 4-({3-chloro-4-[(1R,4R)-2-oxa-5-azabicyclo[2.2.1]heptane-5-carbonyl]pyridin-2-yl}amino)-3-cyclopropyl-5-fluoro-N-[imidazolidin-2-ylidene]benzamide], the EC50 was 69.8 nM.
For `CC(C)C(=O)Nc1cccc(Nc2ccc(C(=O)N=C3NCCN3)cc2C2CCOC2)c1` (stereo not shown) [Compound 63, N-[(2E)-imidazolidin-2-ylidene]-4-{[3-(2-methylpropanamido)phenyl]amino}-3-(oxolan-3-yl)benzamide] the value was 727 nM; for `O=C(N=C1NCCN1)c1ccc(Nc2cccc(C(=O)NC3CCOC3)c2)c(C2CCCC2)c1` (stereo not shown) [Compound 95, 3-cyclopentyl-N-[(2Z)-imidazolidin-2-ylidene]-4-({3-[(oxolan-3-yl)carbamoyl]phenyl}amino)benzamide], 95.9 nM; for `CC(C)NC(=O)c1cccc(Nc2c(F)cc(C(=O)N=C3NCCN3)cc2C2CC2)c1` [Compound 91, 3-cyclopropyl-5-fluoro-N-[(2Z)-imidazolidin-2-ylidene]-4-({3-[(propan-2-yl)carbamoyl]phenyl}amino)benzamide], 2 nM.
For `CC1(NC(=O)c2cccc(Nc3ccc(C(=O)N=C4NCCN4)cc3C3CC3)c2)CC1` [Compound 14, 3-cyclopropyl-N-[(2Z)-imidazolidin-2-ylidene]-4-({3-[(1-methylcyclopropyl)carbamoyl]phenyl}amino)benzamide], the EC50 was 14.4 nM.
For the compound `CC(C)C1(NC(=O)c2cccc(Nc3ccc(C(=O)N=C4NCCN4)cc3C3CC3)c2)CC1` [Compound 7], the EC50 amounted to 1.6 nM.
As to `O=C(N=C1NCCN1)c1cc(F)c(Nc2nccc(C(=O)N3C[C@@H]4C[C@H]3CO4)c2Cl)c(C2CC2)c1` [Compound 155, 4-({3-chloro-4-[(1S,4S)-2-oxa-5-azabicyclo[2.2.1]heptane-5-carbonyl]pyridin-2-yl}amino)-3-cyclopropyl-5-fluoro-N-[imidazolidin-2-ylidene]benzamide], the EC50 amounted to 51.8 nM.
